Source: US20120164674A1, “DEVICES AND WASHES FOR BIOMARKER STABILIZATION” (priority 2010, published 2012)

Assays:
peroxidase = experiment: Peroxidase assay in saliva (Amplex Red); assay type: biochemical; conditions: 500 ppm, 30 minutes, FIGS. 26-29
Galactose Oxidase = conditions: dilute (3.5%) saliva; FIG. 13
Lysozyme = target: T1, Lysozyme (Homo sapiens, UniProt P61626); experiment: Lysozyme inhibition saliva screening (fluorescein-labeled Micrococcus lysodeikticus); assay type: biochemical; conditions: for inhibition of Lysozyme: 100% saliva samples (data not shown); for RFU Reading (60 mins): saliva, test compound prepared at 5,000 ppm; for Lysozyme Inhibitor Activity: dilute (3.5%) saliva, FIG. 12
T1 construct: from tissue; host or cells: saliva (3.5% dilute or 100%)
T1 sequence (P61626 19-148): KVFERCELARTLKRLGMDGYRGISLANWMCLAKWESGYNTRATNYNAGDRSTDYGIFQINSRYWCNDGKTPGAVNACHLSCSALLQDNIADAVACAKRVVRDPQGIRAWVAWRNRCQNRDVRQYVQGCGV
Text: At least one assay used for the detection of […], as used herein includes the use of a Micrococcus lysodeikticus labeled with fluorescein. The assay measures lysozyme activity on Micrococcus lysodeikticus cell walls, which are labeled to such a degree that the fluorescence is quenched. Lysozyme activity can relieve this quenching; yielding increased fluorescence that is proportional to lysozyme activity.
For the assay, test compounds are mixed with saliva, prior to the addition of lysozyme substrate. The test compounds, such as GRAS materials, are prepared at a concentration of 5,000 ppm in distilled water. Following this preparation, 50 μl of lysozyme substrate at 1 mg/ml (Molecular Probes EnzChek Lysozyme Assay Kit) that has been pre-heated to 37° C. is added to 50 μl of the test compound. To initiate the assay, 50 μl of a dilute (3.5%) or full strength (100%) saliva solution is added to the mixture. Following the initiation, each mixture is measured at 1 minute intervals using a spectrophotometer (such as Molecular Devices M5 reader) for absorption at 494 nm and fluorescence emission at 518 nm. Temperatures of the mixtures are kept constant at 37° C. during the assay.
A series of GRAS compounds were tested using the Lysozyme assay protocol described above. […] Further details of these five compounds may also be seen in Table 5.

protease = conditions: cited from earlier work

| Molecule | peroxidase inhibition (peroxidase) | Galactose Oxidase Inhibitor Activity (Galactose Oxidase) | inhibition of Lysozyme (Lysozyme) | RFU Reading (60 mins) (Lysozyme) [RFU] | Lysozyme Inhibitor Activity (Lysozyme) | Inhibitory power (protease) [times times weight] |
| --- | --- | --- | --- | --- | --- | --- |
| O=C(O)c1ccccc1 [CDI #16, Benzoic acid] | significant peroxidase inhibition capabilities | – | – | – | – | – |
| Cn1c(=O)c2c(ncn2C)n(C)c1=O [CDI #33, Caffeine] | significant peroxidase inhibition capabilities | – | – | – | – | – |
| COc1ccc(O)c(C(C)(C)C)c1 [CDI-039, 3-tert--butyl-hydroxyanisole] | significant peroxidase inhibition capabilities | shown to have Galactose Oxidase Inhibitor Activity | – | – | – | – |
| O=C(O)c1ccccc1 [CDI-40, Benzoic acid] | – | shown to have Galactose Oxidase Inhibitor Activity | shown to inhibit Lysozyme | 35.82 | shown to have Lysozyme Inhibitor Activity | – |
| CC(=O)O [CDI-047, Acetic acid] | – | shown to have Galactose Oxidase Inhibitor Activity | shown to inhibit Lysozyme | 33.53 | shown to have Lysozyme Inhibitor Activity | – |
| Soybeans: primary soybean protease inhibitor, 20.7-22.3 kDa (protein, UniProt P01070 25-205, looked up) Trypsin inhibitor A: DFVLDNEGNPLENGGTYYILSDITAFGGIRAAPTGNERCPLTVVQSRNELDKGIGTIISSPYRIRFIAEGHPLSLKFDSFAVIMLCVGIPTEWSVVEDLPEGPAVKIGENKDAMDGWFRLERVSDDEFNNYKLVFCPQQAEDDKCGDIGISIDHDDGTRRLVVSKNKPLVVQFQKLDKESL | – | – | – | – | – | 1.2 |
